According to patent US20220265582A1, “EFFECTS OF MESCALINE AND OF MESCALINE ANALOGS (SCALINES) TO ASSIST PSYCHOTHERAPY” (Universitätsspital Basel, priority 2021, published 2022):
Like-named read-outs stand apart in the source and are kept apart here.

What was measured:
healthy male subjects = conditions: cited from earlier work; for psychoactive or cardiostimulant properties of metabolites administered to humans: in vivo
[1] = LSD vs. MDMA (45); cited from earlier work
5-HT transporter (SERT) = 5-HT transporter (SERT) (Homo sapiens, UniProt P31645); conditions: cited from earlier work
healthy subjects [2] = experiment: Adverse effects, list of complaints (LC), Clinical Study I; type: in vivo, human; conditions: for mean total LC score: six human volunteers, oral mescaline 300 mg, psilocybin 20 mg, LSD 100 μg, LC 12 hours after administration
Protocol: Adverse effects (list of complaints): The list of complaints (LC) consists of 66 items offering a global score measuring physical and general discomfort (119). The LC list was administered 12 hours after administration of the drug with reference to complaints throughout the entire session.

healthy subjects [3] = experiment: Autonomic measures (blood pressure, heart rate, body temperature), Clinical Study I; type: in vivo, human
Protocol: Autonomic measures: Blood pressure, heart rate, and body temperature were recorded at baseline and repeatedly throughout the session. Blood pressure (systolic and diastolic) and heart rate were measured with an automatic oscillometric device. Body temperature was measured with an ear thermometer.

healthy subjects [4] = experiment: Visual Analog Scales (VAS) of acute subjective effects, Clinical Study I; conditions: for duration of subjective effects (VAS any drug effect): mescaline 300 mg, psilocybin 20 mg, LSD 100 μg oral
5-HT2A receptor = 5-HT2A receptor (Homo sapiens, UniProt P28223); conditions: FIG. 2 (62); cited from earlier work
healthy subjects [5] = conditions: 100 μg dose; cited from earlier work
healthy subjects [6] = experiment: 5-Dimensional Altered States of Consciousness (5D-ASC) scale, Clinical Study I; type: in vivo, human; conditions: 6 subjects
Protocol: 5-Dimensional Altered States of Consciousness (5D-ASC): The 5-dimensional Altered States of Consciousness (5D-ASC) Scale is a visual analog scale consisting of 94 items (117, 118). The instrument contains five main scales (FIG. 6A) and 11 newer subscales (FIG. 6B) assessing mood, anxiety, derealization, depersonalization, changes in perception, auditory alterations, and reduced vigilance. The scale is well-validated (118). The 5D-ASC scale was administered once at the end of the session and subjects were instructed to retrospectively rate peak alterations that have been experienced during the study session. Each item of the scale is scored on a 0-100 mm VAS. The attribution of the individual items to the subscales of the 5D-ASC was analyzed according to (117, 118) and as shown in FIGS. 6A-6B. The scale was be administered once at the end of each test session.

D2 receptors = D2 receptors (Homo sapiens, UniProt P14416); conditions: FIG. 3; cited from earlier work
rodent = rodent tests (49); cited from earlier work
humans = conditions: cited from earlier work
healthy subjects [7] = conditions: mescaline sulfate 500 mg, 12 subjects, MDE, 14 subjects, cited from earlier work
[8] = 500 mg mescaline hydrochloride orally
[9] = six healthy volunteers, doses used

Sequence of 5-HT transporter (SERT) (P31645 whole entry): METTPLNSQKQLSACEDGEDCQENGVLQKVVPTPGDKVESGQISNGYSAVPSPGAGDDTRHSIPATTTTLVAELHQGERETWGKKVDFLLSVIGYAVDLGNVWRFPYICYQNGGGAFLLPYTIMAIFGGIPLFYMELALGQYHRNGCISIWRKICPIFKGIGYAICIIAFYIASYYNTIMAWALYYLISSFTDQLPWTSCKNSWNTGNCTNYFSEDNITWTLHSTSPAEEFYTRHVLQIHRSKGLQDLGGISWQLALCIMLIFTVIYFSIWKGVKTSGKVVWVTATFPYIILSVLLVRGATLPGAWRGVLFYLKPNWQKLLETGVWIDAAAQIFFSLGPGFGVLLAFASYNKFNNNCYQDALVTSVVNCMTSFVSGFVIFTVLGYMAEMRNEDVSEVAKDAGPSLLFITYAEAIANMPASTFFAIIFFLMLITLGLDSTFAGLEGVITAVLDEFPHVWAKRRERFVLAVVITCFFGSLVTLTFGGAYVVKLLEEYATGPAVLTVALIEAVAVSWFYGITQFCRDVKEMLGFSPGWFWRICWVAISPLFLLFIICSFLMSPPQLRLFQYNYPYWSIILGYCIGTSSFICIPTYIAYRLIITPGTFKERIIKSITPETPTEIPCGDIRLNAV
Sequence of 5-HT2A receptor (P28223 whole entry): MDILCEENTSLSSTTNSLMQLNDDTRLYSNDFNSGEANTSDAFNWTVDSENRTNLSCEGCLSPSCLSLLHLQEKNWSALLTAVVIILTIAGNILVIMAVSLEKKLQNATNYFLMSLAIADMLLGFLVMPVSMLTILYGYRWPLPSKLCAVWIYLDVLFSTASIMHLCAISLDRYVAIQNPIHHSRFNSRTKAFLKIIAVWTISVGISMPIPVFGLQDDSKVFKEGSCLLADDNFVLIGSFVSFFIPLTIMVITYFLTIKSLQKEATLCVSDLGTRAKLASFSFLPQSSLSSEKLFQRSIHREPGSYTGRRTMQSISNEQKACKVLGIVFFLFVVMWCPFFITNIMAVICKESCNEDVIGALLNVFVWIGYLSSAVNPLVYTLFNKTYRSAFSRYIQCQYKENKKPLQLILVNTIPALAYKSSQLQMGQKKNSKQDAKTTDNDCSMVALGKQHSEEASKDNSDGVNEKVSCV
Sequence of D2 receptors (P14416 whole entry): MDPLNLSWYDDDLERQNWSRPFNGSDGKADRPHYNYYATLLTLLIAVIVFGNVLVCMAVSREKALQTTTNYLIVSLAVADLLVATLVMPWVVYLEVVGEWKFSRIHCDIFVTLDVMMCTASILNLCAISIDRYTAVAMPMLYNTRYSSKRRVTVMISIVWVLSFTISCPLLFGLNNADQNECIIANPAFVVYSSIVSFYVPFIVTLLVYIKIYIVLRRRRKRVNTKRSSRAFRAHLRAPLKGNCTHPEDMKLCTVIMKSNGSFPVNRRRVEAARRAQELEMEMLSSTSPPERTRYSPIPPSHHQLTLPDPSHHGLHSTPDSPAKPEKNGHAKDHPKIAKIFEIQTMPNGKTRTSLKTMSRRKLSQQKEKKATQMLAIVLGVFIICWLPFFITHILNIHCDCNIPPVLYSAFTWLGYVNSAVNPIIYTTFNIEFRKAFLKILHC

For `COc1cc(CCNC(C)=O)cc(O)c1OC` [N-acetyl-(3,4,dimethoxy-5-hydroxyphenylethalymine], the “share excreted in urine as this species after mescaline” value (“share excreted in urine” for short) (healthy male subjects; [8]) is listed as 5%.
For `CNC(C)Cc1ccc2c(c1)OCO2` (stereo not drawn) [MDMA, 3,4-methylendioxymethamphetamine], the AED score [1] is listed as 1.3, the OB score [1] is listed as 9.3 and the VR score [1] is listed as 4.1.
For `CN(C)CCc1c[nH]c2cccc(O)c12` [Psilocin, reference compound], the “interaction with the SERT” value (5-HT transporter (SERT)) is given as “inhibits the 5-HT transporter (SERT)”.
In the case of `CN(C)CCc1c[nH]c2cccc(OP(=O)(O)O)c12` [psilocybin, reference compound], the “mean total LC score” value (healthy subjects [2]) is reported as 6.8, the “increase in blood pressure and body temperature compared with the other active substances” value (healthy subjects [3]; 6 subjects) is reported as “more pronounced and shorter-lasting increase” and the “nausea (VAS)” value (healthy subjects [4]; doses used) is reported as “highest”.
For `CCN(CC)C(=O)[C@@H]1C=C2c3cccc4[nH]cc(c34)C[C@H]2N(C)C1` [LSD, lysergic acid diethylamide, reference compound], the AED score [1] is listed as 26, the OB score [1] is listed as 43 and the VR score [1] is listed as 50. The “binding potency at the 5-HT2A receptor (rank)” value (5-HT2A receptor) was “binds most potently”, the “mean total LC score” value (healthy subjects [2]) was 5.4 and the “area under the effect-time curve, visual and auditory perception (VAS)” value (healthy subjects [4]; doses used) was “greater”. The “bad drug effect (VAS) peaks” value (healthy subjects [4]; doses used) was “peaks lower for LSD and mescaline compared with psilocybin”, the “ego-dissolution (VAS)” value (healthy subjects [4]; doses used) was “mostly increased” and the “stimulated (VAS)” value (healthy subjects [4]; doses used) was “greater stimulation than mescaline”. The “synesthesia, "sounds influenced what I saw" (VAS)” value (healthy subjects [4]; doses used) was “highest ratings”, the “visual and auditory perception change (VAS), ratings/peak” value (healthy subjects [4]; doses used) was “highest ratings” and the “area under the effect over time curve (VAS any/good drug effect)” value (healthy subjects [4]; [9]) was “greater”. The “duration of subjective effects (VAS any drug effect)” value (healthy subjects [4]; six healthy volunteers) was “lasted similarly long”, the duration of effects (healthy subjects [5]) was 8 h and the “time of peak responses” value (healthy subjects [5]) was 3 h. For the same compound, the “overall peak effects (total 3D-OAV scores)” value (healthy subjects [6]; LSD 100 μg, psilocybin 20 mg) was “equally strong overall peak effects”.
In the case of `COc1cc(CC(=O)O)cc(OC)c1OC` [TMPA, 3,4,5-trimethoxyphenylacetic acid], the “share excreted in urine” value (healthy male subjects; [8]) is given as 27-30% and the “psychoactive or cardiostimulant properties of metabolites administered to humans” value (healthy male subjects) is given as “not to have psychoactive or cardiostimulant properties”.
In the case of `COc1cc(CCNC(C)=O)cc(OC)c1OC` [NAM, N-acetyl-mescaline], the “share excreted in urine” value (healthy male subjects; [8]) is listed as 0.1% and the “psychoactive or cardiostimulant properties of metabolites administered to humans” value (healthy male subjects) is listed as “not to have psychoactive or cardiostimulant properties”.
In the case of `COc1cc(CCN)cc(OC)c1OC` [mescaline, 3,4,5-trimethoxyphenethylamine], the “interaction with the SERT” value (5-HT transporter (SERT)) is listed as “do not interact with the SERT”, the “overall tolerability of acute administration” value (healthy subjects [2]; doses used) is listed as “overall similar to that of LSD or psilocybin” and the “mean total LC score” value (healthy subjects [2]) is listed as 8.8. For the same compound, the “increases in blood pressure, heart rate and body temperature after mescaline” value (healthy subjects [3]; 6 subjects, mescaline 300 mg) was “tended to be attenuated compared with both psilocybin and LSD”, the thermogenic effects (healthy subjects [3]; Example 1) was “reduced thermogenic effects of mescaline compared to psilocybin” and the “effects on heart rate” value (healthy subjects [3]; doses used, not statistically confirmed) was “tended to be lower than those of psilocybin”. The “affinity for D2 receptors” value (D2 receptors) was “no affinity”, the “area under the effect-time curve, visual and auditory perception (VAS)” value (healthy subjects [4]; doses used) was “similar” and the “bad drug effect (VAS) peaks” value (healthy subjects [4]; doses used) was “peaks lower for LSD and mescaline compared with psilocybin”. For the same compound, the “changed time perception (VAS)” value (healthy subjects [4]; doses used) was “trends toward lower changes”, the “ego-dissolution (VAS)” value (healthy subjects [4]; doses used) was “lower ratings” and the “nausea (VAS)” value (healthy subjects [4]; doses used) was “lowest nausea ratings”. The “openness (VAS)” value (healthy subjects [4]; doses used) was “smallest peak effect but a longer lasting effect compared with psilocybin”, the “synesthesia, "sounds influenced what I saw" (VAS)” value (healthy subjects [4]; doses used) was “lower ratings” and the “visual and auditory perception change (VAS), ratings/peak” value (healthy subjects [4]; doses used) was “lower peak effects than both psilocybin and LSD”. For the same compound, the “talkative (VAS)” value (healthy subjects [4]; first hours) was “longest effect”, the “area under the effect over time curve (VAS any/good drug effect)” value (healthy subjects [4]; [9]) was “similar” and the “peak effect (VAS any/good drug effect)” value (healthy subjects [4]; [9]) was “lower than those of psilocybin and LSD”. For the same compound, the “time to peak of subjective effects (VAS any/good drug effect)” value (healthy subjects [4]; [9]) was “took longer to peak compared to those of psilocybin and LSD”, the “duration of subjective effects (VAS any drug effect)” value (healthy subjects [4]; six healthy volunteers) was “lasted similarly long” and the abuse-related rewarding effects (rodent) was “no abuse-related rewarding effects”. For the same compound, the “dose to induce a full psychedelic experience” value (humans; (51, 86)) was “about 300 mg”, the “potency relative to LSD (times less potent)” value (humans; (86)) was 1000-3000 times and the “potency relative to psilocybin (times less potent)” value (humans; (86)) was “around 30 times”. The subjective effect duration (humans; moderate dose (86)) was 10 to 12 h, the “total alterations of consciousness (total 3D-OAV score) relative to LSD (100 μg) or psilocybin (20 mg)” value (healthy subjects [6]; mescaline 300 mg oral, peak responses rated 12 hours after administration) was “approximately 50%” and the “average APZ score AIA (anxious ego-dissolution)” value (healthy subjects [7]) was 7.1. For the same compound, the “average APZ score VUS (visionary restructuralization)” value (healthy subjects [7]) was 7.4, the “average APZ score OSE (oceanic boundlessness)” value (healthy subjects [7]; indirect comparison) was 6.2 and the “duration of subjective effects” value (healthy male subjects; [8]) was 12 to 14 h. The “onset of subjective effects” value (healthy male subjects; [8]) was no more than 30 min, the “share excreted in urine” value (healthy male subjects; [8]) was 55-60% and the “time of peak subjective effects” value (healthy male subjects; [8]) was 4 h. For the same compound, the “onset of subjective effects” value (healthy male subjects; 500 mg mescaline hydrochloride orally, listed as mescaline hydrochloride) was “approximately 30 min”, the “delay of the peak subjective response compared with the plasma peak” value (healthy male subjects; 500 mg orally) was “about 2 hours” and the “radioactivity administered excreted within 24 hours” value (healthy male subjects; 500 mg orally) was 87%. For the same compound, the “radioactivity administered excreted within 48 h” value (healthy male subjects; 500 mg orally) was 92% and the half-life (healthy male subjects; mescaline hydrochloride 500 mg orally, radioactivity ingested as mescaline) was “approximately six”.
